In publication PMC6534212, “Synthesis and biological evaluation of 3–(4-aminophenyl)-coumarin derivatives as potential anti-Alzheimer’s disease agents” (Journal of Enzyme Inhibition and Medicinal Chemistry, 2019):
Entries after “also recorded” stand apart in the source; their conditions may differ.

Experiments:
BuChE from equine serum = target: T1, BuChE from equine serum (Equus caballus, UniProt P81908); experiment: biochemical; type: biochemical; conditions: for IC50: BuChE from equine serum, mean ± SD (n=3); for BuChE inhibitory activity (in words): verbal summary of Table 2, comparison with donepezil
T1 construct: Butyrylcholinesterase (BuChE, from equine serum, Aladdin, Shanghai, China); purchased Aladdin, Shanghai, China; host or cells: equine serum
T1 sequence (P81908 whole entry): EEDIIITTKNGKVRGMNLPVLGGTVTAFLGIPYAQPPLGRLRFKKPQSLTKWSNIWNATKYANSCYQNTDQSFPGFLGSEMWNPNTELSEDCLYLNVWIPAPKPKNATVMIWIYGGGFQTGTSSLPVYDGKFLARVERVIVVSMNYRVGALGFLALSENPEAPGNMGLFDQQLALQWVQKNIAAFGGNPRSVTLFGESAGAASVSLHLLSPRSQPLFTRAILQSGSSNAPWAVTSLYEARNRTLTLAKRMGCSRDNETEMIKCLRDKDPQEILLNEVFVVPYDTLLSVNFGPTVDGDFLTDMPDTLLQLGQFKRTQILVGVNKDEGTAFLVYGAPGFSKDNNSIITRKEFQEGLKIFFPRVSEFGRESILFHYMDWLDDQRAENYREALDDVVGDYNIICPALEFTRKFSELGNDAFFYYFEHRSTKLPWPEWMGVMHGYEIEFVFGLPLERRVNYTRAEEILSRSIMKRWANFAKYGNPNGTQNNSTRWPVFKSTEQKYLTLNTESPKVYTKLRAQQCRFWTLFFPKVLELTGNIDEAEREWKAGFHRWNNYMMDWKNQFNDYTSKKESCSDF
Description: (§1) In the experiment, 0.05 mol/L phosphate buffered saline (PBS) of pH 8.0 was prepared first, and then the following solutions were prepared: 1.5 mmol/L Acetylthiocholine iodide (ATChI); 0.75 mmol/L 5, 5'-Dithiobis-(2-nitrobenzoic acid) (DTNB, Sigma Aldrich, St. Louis, MO); 0.2 U/mL Acetylcholinesterase (AChE, from […], Macklin); 0.5 U/mL Butyrylcholinesterase (BuChE, from equine serum, Aladdin, Shanghai, China); 1.5 mmol/L S-Butyrylthiocholine iodide (BTChI, Sigma Aldrich, St. Louis, MO). 4% sodium dodecyl sulphate (SDS) was prepared with secondary water. […] All solutions were stored in a refrigerator at 4 °C.
(§2) The AChE/BuChE inhibitory activity of the 3–(4-aminophenyl)-coumarin derivatives was determined by the method of Ellaman[28] with slight modifications. The experiment was divided into control group, sample blank group and sample group. Take a series of test tubes, the reagents were loaded in test tubes at the dose of Table 6. After incubation at 37 °C for 20 min, quickly add 1 mL of 4% SDS to stop the reaction. […] All experiments were run in triplicate. The absorbance was determined by UV spectrophotometer, and the inhibition rate of AChE and the IC50 value of each sample were calculated according to the formula. Inhibition rate % = {[(AC−AS)−ASB]/AC} ×100%, where AC (no sample added) is the absorbance of control group; AS is the absorbance of sample group; ASB (add sample solution but no substrate ATChI added) is the absorbance of sample blank group.
The method for determining BuChE is the same as the method for measuring AChE. The sample can be added with reference to Table 6, AChE is changed to BuChE, and the substrate ATChI is changed to substrate BTChI. The order of loading and the amount of loading are the same as Table 6. The absorbance was determined by UV spectrophotometer, and the inhibition rate of BuChE and the IC50 value of each sample were calculated according to the formula. The formula used is the same as AChE.

[1] = target: T2, AChE from Electrophorus electricus (Electrophorus electricus, UniProt O42275); experiment: biochemical; type: biochemical; conditions: for IC50: AChE from Electrophorus electricus, mean ± SD (n=3); for Selectivity AChE/BuChE (in words): verbal summary of SI; for AChE inhibitory activity (in words): verbal summary of Table 2
T2 construct: purchased Macklin
T2 sequence (O42275 24-633): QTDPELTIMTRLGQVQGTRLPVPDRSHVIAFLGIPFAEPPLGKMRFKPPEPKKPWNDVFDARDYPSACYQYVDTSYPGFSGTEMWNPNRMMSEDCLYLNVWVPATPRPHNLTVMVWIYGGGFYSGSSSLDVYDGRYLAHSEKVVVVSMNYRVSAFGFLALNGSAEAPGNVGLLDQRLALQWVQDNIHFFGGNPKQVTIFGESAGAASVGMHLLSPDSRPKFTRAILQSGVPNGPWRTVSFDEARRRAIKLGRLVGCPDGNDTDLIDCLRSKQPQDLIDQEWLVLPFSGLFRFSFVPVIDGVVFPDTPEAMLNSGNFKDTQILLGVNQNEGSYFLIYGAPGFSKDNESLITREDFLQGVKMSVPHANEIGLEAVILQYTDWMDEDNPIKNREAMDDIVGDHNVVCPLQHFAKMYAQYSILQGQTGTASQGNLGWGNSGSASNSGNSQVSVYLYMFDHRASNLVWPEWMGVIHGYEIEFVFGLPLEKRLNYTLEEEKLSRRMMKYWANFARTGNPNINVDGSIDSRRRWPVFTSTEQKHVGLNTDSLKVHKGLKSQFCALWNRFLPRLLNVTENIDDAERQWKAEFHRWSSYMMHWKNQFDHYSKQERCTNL
Description: as §1, §2

[2] = test system: aluminium trichloride-induced zebrafish juveniles; experiment: Effects of compounds on aluminium trichloride-induced behavioural inhibition of zebrafish juveniles (Zebrobox); conditions: for Total movement distance: mean ± SE, n=8; for Effect on behavioural inhibition of zebrafish induced by aluminium trichloride (in words): compared with the model group
Description: The most suitable modelling concentrations were chosen, and then the effect of the compounds on the behaviour of the aluminium trichloride-induced zebrafish juveniles was explored.
The 72 hpf zebrafish were placed in a petri dish, and the normal developing juveniles were selected under a microscope in a 12-well plate. […] The continuous drug solution was exposed for 3 days. […] Each well was juvenile fish developed to 72 h post-exposure (hpe) and added 0.5 mL of culture water and 8 juveniles were set in each experimental group. The well plate was placed in the dark box of the zebrafish behaviour analysis system. The fish was first adapted to 10 min at the beginning of the experiment. The trajectories of the juveniles in each group were collected using zeblab software for 10 min, recorded every 5 min, and exported by software. Then calculate the total distance of each group of zebrafish juveniles.
The zebrafish with 72 hpf after fertilisation is placed in a petri dish. Under normal conditions, the normal developing juvenile fish are selected in a 12-well plate, and 15 juveniles per hole are set. Control group (0.5% DMSO), model group (5.0 mg/L AlCl3), 5.0 mg/L AlCl3 + test compound 5 μg/mL group, 5.0 mg/L AlCl3 + test compound 10 μg/mL group, 5.0 mg/L AlCl3 + test compound 50 μg/mL group, 5.0 mg/L AlCl3 + test compound 100 μg/mL group, three duplicate wells were set at each concentration. After the administration, the zebrafish was placed in a constant temperature incubator at 28 °C to continue the culture for 3 days. Changing the liquid (aquaculture water) every 24 h and removing dead young fish.

[3] = 5 mg/L compound + 5.0 mg/L AlCl3, 3 days
[4] = 10 mg/L compound + 5.0 mg/L AlCl3, 3 days
[5] = 50 mg/L compound + 5.0 mg/L AlCl3, 3 days
[6] = 100 mg/L compound + 5.0 mg/L AlCl3, 3 days

Compound | IC50 (BuChE from equine serum) [µM] | IC50 [1] [µM] | Selectivity AChE/BuChE (in words) [1] | AChE inhibitory activity (in words) [1] | BuChE inhibitory activity (in words) (BuChE from equine serum) | SI: selectivity index (IC50 BuChE/IC50 AChE) [1] | Total movement distance [2, 3] [cm] | Total movement distance [2, 4] [cm] | Total movement distance [2, 5] [cm] | Total movement distance [2, 6] [cm] | Effect on behavioural inhibition of zebrafish induced by aluminium trichloride (in words) [2] | BuChE inhibitory activity relative to donepezil (BuChE from equine serum; more active than donepezil) [times]
O=C(Nc1ccc(-c2cc3ccc(O)cc3oc2=O)cc1)c1cccc(F)c1 [Compound 4a, 3-[4-(3-fluoro-benzoylamino)-phenyl]-7-hydroxy-coumarin] | 3.89 ± 0.955 | > 50 | highly selective for BuChE | no inhibitory activity | – | – | – | – | – | – | – | –
O=C(Nc1ccc(-c2cc3ccc(O)cc3oc2=O)cc1)c1ccc(F)cc1 [Compound 4b, 3-[4-(4-fluoro-benzoylamino)-phenyl]-7-hydroxy-coumarin] | 2.44 ± 0.035 | > 50 | highly selective for BuChE | no inhibitory activity | better than donepezil | <0.050 | – | – | – | – | – | –
Cc1ccc(C(=O)Nc2ccc(-c3cc4ccc(O)cc4oc3=O)cc2)cc1 [Compound 4c, 3-[4-(4-methyl-benzoylamino)-phenyl]-7-hydroxy-coumarin] | 15.6 ± 1.82 | > 50 | – | no inhibitory activity | – | – | – | – | – | – | – | –
O=C(Nc1ccc(-c2cc3ccc(O)cc3oc2=O)cc1)c1ccc(CCl)cc1 [Compound 4d, 3-[4-(4-chloromethyl-benzoylamino)-phenyl]-7-hydroxy-coumarin] | 8.9 ± 1.18 | 47.2 ± 3.57 | – | – | – | 0.189 | – | – | – | – | – | –
Cc1cccc(C(=O)Nc2ccc(-c3cc4ccc(O)cc4oc3=O)cc2)c1 [Compound 4e, 3-[4-(3-methyl-benzoylamino)-phenyl]-7-hydroxy-coumarin] | 10.6 ± 0.132 | > 50 | – | no inhibitory activity | – | <0.211 | – | – | – | – | – | –
O=C(Nc1ccc(-c2cc3ccc(O)cc3oc2=O)cc1)c1cccc(Cl)c1 [Compound 4f, 3-[4-(3-chloro-benzoylamino)-phenyl]-7-hydroxy-coumarin] | 2.56 ± 0.275 | 1.94 ± 0.141 | – | moderate to excellent AChE inhibitory activity | better than donepezil | 1.319 | 205.7 ± 4.5 | 223.2 ± 16.4 | 236 ± 11.5 | 244.8 ± 13.6 | certain therapeutic effects; also recorded: could alleviate the behavioural inhibition symptoms | –
O=C(Nc1ccc(-c2cc3ccc(O)cc3oc2=O)cc1)c1ccccc1F [Compound 4g, 3-[4-(2-fluoro-benzoylamino)-phenyl]-7-hydroxy-coumarin] | 24.5 ± 0.535 | > 50 | – | no inhibitory activity | – | <0.489 | – | – | – | – | – | –
O=C(Nc1ccc(-c2cc3ccc(O)cc3oc2=O)cc1)c1ccc(Cl)cc1 [Compound 4h, 3-[4-(4-chloro-benzoylamino)-phenyl]-7-hydroxy-coumarin] | 3.88 ± 0.191 | > 50 | highly selective for BuChE | no inhibitory activity | – | <0.078 | – | – | – | – | – | –
Cc1cc(C)cc(C(=O)Nc2ccc(-c3cc4ccc(O)cc4oc3=O)cc2)c1 [Compound 4i, 3-[4-(3,5-dimethyl-benzoylamino)-phenyl]-7-hydroxy-coumarin] | 2.26 ± 0.225 | > 50 | highly selective for BuChE | no inhibitory activity | better than donepezil | <0.045 | – | – | – | – | – | –
COc1cccc2cc(-c3ccc(NC(=O)c4cccc(F)c4)cc3)c(=O)oc12 [Compound 4j, 3-[4-(3-fluoro-benzoylamino)-phenyl]-8-methoxy-coumarin] | 0.905 ± 0.081 | 4.16 ± 0.161 | – | moderate to excellent AChE inhibitory activity | better than donepezil | 0.217 | 208.8 ± 9.6 | 226 ± 10.7 | 231.8 ± 13.2 | 225.7 ± 13.4 | certain therapeutic effects; also recorded: could alleviate the behavioural inhibition symptoms | –
COc1cccc2cc(-c3ccc(NC(=O)c4ccc(F)cc4)cc3)c(=O)oc12 [Compound 4k, 3-[4-(4-fluoro-benzoylamino)-phenyl]-8-methoxy-coumarin] | 0.559 ± 0.017 | 28 ± 2.56 | highly selective for BuChE | – | better than donepezil | 0.020 | 194.9 ± 5.5 | 186.7 ± 7.7 | 181.8 ± 6.9 | 205.7 ± 9.5 | – | 5
COc1cccc2cc(-c3ccc(NC(=O)c4cccc(Cl)c4)cc3)c(=O)oc12 [Compound 4n, 3-[4-(3-chloro-benzoylamino)-phenyl]-8-methoxy-coumarin] | 0.951 ± 0.159 | > 50 | – | – | better than donepezil | <0.020 | – | – | – | – | – | –
COc1cccc2cc(-c3ccc(NC(=O)c4cccc(C)c4)cc3)c(=O)oc12 [Compound 4o, 3-[4-(3-methyl-benzoylamino)-phenyl]-8-methoxy-coumarin] | > 50 | 8.26 ± 0.581 | highly selective for AChE | moderate to excellent AChE inhibitory activity | – | >6.054 | – | – | – | – | – | –
COc1cccc2cc(-c3ccc(NC(=O)c4ccccc4F)cc3)c(=O)oc12 [Compound 4p, 3-[4-(2-fluoro-benzoylamino)-phenyl]-8-methoxy-coumarin] | 16 ± 0.475 | 48.9 ± 2.32 | – | – | – | 0.326 | – | – | – | – | – | –
COc1ccccc1C(=O)Nc1ccc(-c2cc3cccc(OC)c3oc2=O)cc1 [Compound 4q, 3-[4-(2-methoxy-benzoylamino)-phenyl]-8-methoxy-coumarin] | > 50 | 48.2 ± 3.13 | – | – | – | >1.037 | – | – | – | – | – | –
O=C(Nc1ccc(-c2cc3ccc(O)c(O)c3oc2=O)cc1)c1ccc(CCl)cc1 [Compound 4s, 3-[4-(4-Chloromethyl-benzoylamino)-phenyl]-7,8-dihydroxy-coumarin] | > 50 | 48.2 ± 2.69 | – | – | – | >1.037 | – | – | – | – | – | –
COc1cccc2cc(-c3ccc(NC(=O)c4ccco4)cc3)c(=O)oc12 [Compound 5b, 3-[4-(furan-2-formylamino)-phenyl]-8-methoxy-coumarin] | 4.62 ± 0.055 | 47.1 ± 1.59 | – | – | – | 0.098 | – | – | – | – | – | –
O=C(Nc1ccc(-c2cc3ccc(O)cc3oc2=O)cc1)c1cccc2ccccc12 [Compound 6a, 3-[4-(1-naphthoylamino)-phenyl]-7-hydroxy-coumarin] | > 50 | 19.1 ± 0.981 | – | – | – | >2.612 | – | – | – | – | – | –
COc1cccc2cc(-c3ccc(NC(=O)c4cccc5ccccc45)cc3)c(=O)oc12 [Compound 6b, 3-[4-(1-naphthoylamino)-phenyl]-8-methoxy-coumarin] | > 50 | > 50 | – | – | – | – | – | – | – | – | – | –
O=C(Nc1ccc(-c2cc3ccc(O)cc3oc2=O)cc1)c1ccc2ccccc2c1 [Compound 7a, 3-[4-(2-naphthoylamino)-phenyl]-7-hydroxy-coumarin] | 2.07 ± 0.045 | > 50 | – | – | better than donepezil | – | – | – | – | – | – | –
COc1cccc2cc(-c3ccc(NC(=O)c4ccc(Cl)nc4)cc3)c(=O)oc12 [Compound 7c, 3-[4-(6-chloro-N-nicotinamide)-phenyl]-8-methoxy-coumarin] | 3.38 ± 0.342 | 19.2 ± 1.64 | – | – | – | 0.176 | – | – | – | – | – | –
